The values below come from US6441237B1, “Substituted 3-phenoxy- and 3-phenylalkyloxy-2-phenyl-propylamines” (Boehringer Ingelheim Pharma KG, priority 1999, dated 2002).

Turning to `C#CCNCC(COCc1c(F)cccc1F)c1c(C)cccc1C.Cl` (stereo not drawn) [8.9], the melting point worked out at 124 °C.

Turning to `C=C(C)CN(C)CC(c1c(C)cccc1C)C(OC)c1c(F)cccc1F.O=C(O)C(=O)O` (stereo not drawn), the melting point was 128 °C.

`CCCNCC(COCc1c(F)cccc1F)c1c(C)cccc1C.Cl` (stereo not drawn) registered a melting point of 142 °C.

Turning to `Cc1cccc(C)c1C(CNCC1CC1)COCc1c(F)cccc1Cl.Cl` (stereo not drawn), the melting point turned out to be 154 °C.

In turn, `CCCNCC(COCc1ccccc1F)c1c(C)cccc1C.Cl` (stereo not drawn) had a melting point of 100 °C.

Compound `COCCNCC(COCc1ccccc1F)c1c(C)cccc1C.Cl` (stereo not drawn) registered a melting point of 77 °C.

As for `Br.CCCN(CCC)CC(COCc1c(F)cccc1F)c1c(C)cccc1C` (stereo not drawn), the melting point was 143 °C.

Compound `C=CCN(C)CC(c1c(C)cccc1C)C(OC)c1c(F)cccc1F.Cl` (stereo not drawn) [11.55] yielded a melting point of 116 °C.

`Br.Cc1cccc(C)c1C(CNC(C)C)COCc1ccccc1F` (stereo not drawn) had a melting point of 111 °C.

Turning to `C#CCNCC(COCc1c(F)cccc1F)c1c(C)cccc1C.Cl` (stereo not drawn) [8.12], the melting point was 145 °C.

In turn, `Cc1cccc(C)c1C(CNCC(C)C)COCc1c(F)cccc1F.Cl` (stereo not drawn) showed a melting point of 119 °C.

Consider `Cc1cccc(C)c1C(CNCC1CC1)COCc1ccccc1F.Cl` (stereo not drawn), for which the melting point was determined as 101 °C.

In turn, `Cc1cccc(C)c1C(CNC1CCCC1)COCc1c(F)cccc1F.Cl` (stereo not drawn) came in with a melting point of 130 °C.

With `Br.Cc1cccc(C)c1C(CNCC1CC1)COCc1ccccc1F` (stereo not drawn), the melting point was determined as 101 °C.

`Cc1cccc(C)c1C(CNCC1CC1)COCc1c(F)cccc1F.Cl` (stereo not drawn) displayed a melting point of 145 °C.

On to `Cc1cccc(C)c1C(CNC(C)C)COCc1c(F)cccc1F.Cl` (stereo not drawn), for which the melting point is 138 °C.

Take `Cc1cccc(C)c1C(CNC(C)C)COCc1ccccc1F.Cl` (stereo not drawn): the melting point came out at 123 °C.

In the case of `Br.Cc1cccc(C)c1C(CNCC1CCCO1)COCc1c(F)cccc1F` (stereo not drawn), the melting point was 149 °C.

In the case of `Cc1cccc(C)c1COCC(CNCC1CC1)c1c(C)cccc1C.Cl` (stereo not drawn), the melting point came out at 142 °C.

Take `COCCNCC(COCc1c(F)cccc1F)c1c(C)cccc1C.Cl` (stereo not drawn): the melting point worked out at 128 °C.

In turn, `C#CCNCC(COCc1ccccc1F)c1c(C)cccc1C.Cl` (stereo not drawn) registered a melting point of 112 °C.

With `Cc1cccc(C)c1C(COCc1c(F)cccc1F)CN(C)C.Cl` (stereo not drawn), the melting point was 144 °C.

With `Cc1cccc(C)c1C(CNCC1CCC1)COCc1ccccc1F.Cl` (stereo not drawn), the melting point came to 191 °C.

For the compound `Cc1cccc(C)c1C(CNC1CCCC1)COCc1ccccc1F.Cl` (stereo not drawn), the melting point was 102 °C.

Broadly, the melting point is the temperature, or range, at which the solid turns liquid.
